In US12679807B2 (MERCK SHARP & DOHME LLC, priority 2020, dated 2026) one finds EC50 data, which are given here for 24 molecules.

This test addresses T1, GCS enzyme contained within Golgi preparations isolated from human A375 malignant melanoma skin cells (Homo sapiens, UniProt Q16739).
T1 construct: endogenous levels of GCS enzyme contained within Golgi preparations isolated from human A375 malignant melanoma skin cells; endogenous in cells; host or cells: A375 human malignant melanoma cells (crude Golgi preparation)
T1 sequence (Q16739 1-394): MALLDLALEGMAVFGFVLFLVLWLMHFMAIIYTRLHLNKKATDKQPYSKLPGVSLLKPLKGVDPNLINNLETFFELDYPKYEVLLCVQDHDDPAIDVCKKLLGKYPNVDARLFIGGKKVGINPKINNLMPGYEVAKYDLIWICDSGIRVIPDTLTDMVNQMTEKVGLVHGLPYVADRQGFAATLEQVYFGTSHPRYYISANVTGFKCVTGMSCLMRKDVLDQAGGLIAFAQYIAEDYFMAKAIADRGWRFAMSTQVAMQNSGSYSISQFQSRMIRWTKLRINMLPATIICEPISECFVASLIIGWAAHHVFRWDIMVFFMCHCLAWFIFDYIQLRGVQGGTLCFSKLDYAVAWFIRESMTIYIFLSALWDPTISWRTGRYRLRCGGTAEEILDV
Description: UDP-Glo glucosylceramide synthase biochemical assay. The note with it: crude Golgi preparation from A375 cells; C6 ceramide and UDP-glucose substrates; 20 h incubation at room temperature; UDP detected by luminescence. From the text:
UDP-Glo™ Glucosylceramide Synthase Biochemical Assay
A UDP-Glo™ glucosylceramide synthase biochemical assay was utilized to evaluate the effect of test compounds on the activity of endogenous levels of GCS enzyme contained within Golgi preparations isolated from human A375 malignant melanoma skin cells. The UDP-Glo™ glucosylceramide synthase assay uses UDP-Glucose as a nucleotide-glycosyl donor and ceramide as substrate acceptor molecules. In the reaction, glucosylceramide synthase (GCS) transfers glucose from UDP-Glucose to ceramide. Glucosylceramide and UDP are released as products.
Using Promega's UDP-Glo™ Glycosyltransferase assay kit (Promega Corporation, Madison, WI, USA (Promega)), GCS activity was indirectly measured by detecting the amount of UDP produced. An aliquot of GCS enzyme (1.5 μg crude golgi preparation, total protein) and titrated test compound were aliquoted to each well and incubated for 30 minutes at room temperature. […] An equivalent volume of substrate mixture was then added to each well. Following a 20 h incubation at room temperature to allow for GCS turnover of substrate, an equal volume of UDP detection reagent (Promega) was added to each well and incubated for an additional 75 minutes at room temperature to simultaneously convert the accumulated UDP product into ATP and generate light in a luciferase reaction. The generated light was detected using a luminometer. […] luminescence values (RLUs) were normalized to mean “min” and “max” effects, as determined on each plate. […] Values for % Emax and EC50 were determined by best-fitting the normalized data to a curve in Activity Base along a four-parameter logistic nonlinear regression (4PL) model (based on the Levenberg-Marquardt algorithm and defined by the equation below):
[formula] where: n is 4 PMin (bottom of the curve); m is 4 PMax (top of the curve); i is IP (inflection point of curve); and p is slope. See Levenberg, K., “A Method for the Solution of Certain Problems in Least Squares”, Quart. Appl. Math. […] Math.

pEC50: −log10 of the molar value.

`O=C(Nc1cccc2c1C(=O)N(CC1CC1)C2)c1ccnc2ccc(F)cc12` [Compound 144, N-(2-(cyclopropylmethyl)-3-oxoisoindolin-4-yl)-6-fluoroquinoline-4-carboxamide] had a pEC50 of 6.72.

Take `C[C@@H](C1CC1)N1Cc2cccc(NC(=O)c3ccnc4c3CCC4)c2C1=O` [Compound 140, (S)-N-(2-(1-cyclopropylethyl)-3-oxoisoindolin-4-yl)-6,7-dihydro-5H-cyclopenta[b]pyridine-4-carboxamide]: the pEC50 is 6.92.

In turn, `Cc1c(F)cccc1C(=O)Nc1cccc2c1C(=O)N(C(C1CC1)C(C)(C)O)C2` (single isomer, unassigned) [Compound 119, (R or S)-N-(2-(1-cyclopropyl-2-hydroxy-2-methylpropyl)-3-oxoisoindolin-4-yl)-3-fluoro-2-methylbenzamide] showed a pEC50 of 8.14.

`O=C(Nc1cc(Cl)cc2c1C(=O)N(CC1CC1)C2)c1ccnc2c1CCC2` [Compound 143, N-(6-chloro-2-(cyclopropylmethyl)-3-oxoisoindolin-4-yl)-6,7-dihydro-5H-cyclopenta[b]pyridine-4-carboxamide] gave a pEC50 of 6.74.

As to `CC(C)(O)[C@@H](C1CC1)N1Cc2cccc(-c3cc(Cl)cc(C#N)n3)c2C1=O` [Compound 92, 4-chloro-6-[2-[(1R)-1-cyclopropyl-2-hydroxy-2-methyl-propyl]-3-oxo-isoindolin-4-yl]pyridine-2-carbonitrile], the pEC50 is 7.48. This pEC50 is 0.74 log units higher than that of the molecule before.

Molecule `CC(C)(O)C(C1CC1)N1Cc2cccc(OCc3ccnc4c3CCC4)c2C1=O` (single isomer, unassigned) [Compound 180, (R or S)-2-(1-cyclopropyl-2-hydroxy-2-methylpropyl)-7-((6,7-dihydro-5H-cyclopenta[b]pyridin-4-yl)methoxy)isoindolin-1-one] showed a pEC50 of 7.46. The pEC50 values of the last two molecules are within 0.2 log units of each other.

As to `O=C(Nc1cccc2c1C(=O)N(C(C1CC1)C1CC1)C2)c1ccnc2c1CCC2` [Compound 121, N-(2-(dicyclopropylmethyl)-3-oxoisoindolin-4-yl)-6,7-dihydro-5H-cyclopenta[b]pyridine-4-carboxamide], the pEC50 is 7.82. Compared with the last molecule, the pEC50 is 0.36 log units higher.

Consider `Cc1nnc(-c2ccc(-c3nccc4c3C(=O)N(C(C3CC3)C(C)(C)O)C4)cc2)o1` (single isomer, unassigned) [Compound 28, (R or S)-2-(1-cyclopropyl-2-hydroxy-2-methylpropyl)-4-(4-(5-methyl-1,3,4-oxadiazol-2-yl)phenyl)-1,2-dihydro-3H-pyrrolo[3,4-c]pyridin-3-one], for which the pEC50 is 6.27.

Turning to `C[C@@H](C1CC1)N1Cc2cccc(NC(=O)c3c(Cl)cnc4c3OCO4)c2C1=O` [Compound 137, (S)-6-chloro-N-(2-(1-cyclopropylethyl)-3-oxoisoindolin-4-yl)-[1,3]dioxolo[4,5-b]pyridine-7-carboxamide], the pEC50 was 7.11.

As to `Cc1nnc(-c2ccc(-c3c(F)cc(O)c4c3C(=O)N([C@H](C3CC3)C(C)(C)O)C4)cc2)o1` [Compound 59, (R)-2-(1-cyclopropyl-2-hydroxy-2-methylpropyl)-6-fluoro-4-hydroxy-7-(4-(5-methyl-1,3,4-oxadiazol-2-yl)phenyl) isoindolin-1-one], the pEC50 is 8.00.

Turning to `Cc1nnc(-c2ccc(-c3cc(Cl)cc4c3C(=O)N(C(C3CC3)C(C)(C)O)C4)cc2)o1` (single isomer, unassigned) [Compound 39, (R or S)-5-chloro-2-(1-cyclopropyl-2-hydroxy-2-methylpropyl)-7-(4-(5-methyl-1,3,4-oxadiazol-2-yl)phenyl)isoindolin-1-one], the pEC50 is 9.10.

As for `COc1ccc(-c2cccc3c2C(=O)N(C(C2CC2)C(C)(C)O)C3)cc1OC` (racemic) [Compound 19, (R and S)-2-(1-cyclopropyl-2-hydroxy-2-methylpropyl)-7-(3,4-dimethoxyphenyl) isoindolin-1-one], the pEC50 is 7.55.

In the case of `Cn1cc(-c2ccc(-c3cccc4c3C(=O)N(C(C(C)(C)O)C(F)(F)F)C4)cc2)cn1` (single isomer, unassigned) [Compound 43, (R or S)-7-(4-(1-methyl-1H-pyrazol-4-yl)phenyl)-2-(1,1,1-trifluoro-3-hydroxy-3-methylbutan-2-yl)isoindolin-1-one], the pEC50 was 7.62.

As for `O=C(Nc1cccc2c1C(=O)N(CC1CC1)C2)c1c2c(nc3ccccc13)CCC2` [Compound 128, N-(2-(cyclopropylmethyl)-3-oxoisoindolin-4-yl)-2,3-dihydro-1H-cyclopenta[b]quinoline-9-carboxamide], the pEC50 is 7.42.

`Cc1nnc(-c2ccc(-c3c(Cl)ccc4c3C(=O)N([C@H](C3CC3)C(C)(C)O)C4)cc2)o1` [Compound 40, (R)-6-chloro-2-(1-cyclopropyl-2-hydroxy-2-methylpropyl)-7-(4-(5-methyl-1,3,4-oxadiazol-2-yl)phenyl)isoindolin-1-one] had a pEC50 of 9.01.

For the molecule `Cc1cnc(-c2ccc(-c3cccc4c3C(=O)N([C@H](C3CC3)C(C)(C)O)C4)cc2)o1` [Compound 64, (R)-2-(1-Cyclopropyl-2-hydroxy-2-methylpropyl)-7-(4-(5-methyloxazol-2-yl)phenyl)isoindolin-1-one], the pEC50 was 6.74.

Regarding `CC(C)(O)C(C1CC1)N1Cc2cccc(C#Cc3ccnc4c3CCC4)c2C1=O` (single isomer, unassigned) [Compound 172, (R or S)-2-(1-Cyclopropyl-2-hydroxy-2-methylpropyl)-7-((6,7-dihydro-5H-cyclopenta[b]pyridin-4-yl)ethynyl)isoindolin-1-one], the pEC50 was 8.01.

`Cc1cnc2c(c1C(=O)Nc1cccc3c1C(=O)N(C(C1CC1)C(C)(C)O)C3)OCO2` (single isomer, unassigned) [Compound 169, (R or S)—N-(2-(1-Cyclopropyl-2-hydroxy-2-methylpropyl)-3-oxoisoindolin-4-yl)-6-methyl-[1,3]dioxolo[4,5-b]pyridine-7-carboxamide] had a negative logarithm of the EC50 (pEC50) of 9.40.

With `CC(C)(O)C(C1CC1)N1Cc2cccc(NC(=O)c3ccnc4c3CCO4)c2C1=O` (single isomer, unassigned) [Compound 162, (R or S)-N-(2-(1-cyclopropyl-2-hydroxy-2-methylpropyl)-3-oxoisoindolin-4-yl)-2,3-dihydrofuro[2,3-b]pyridine-4-carboxamide], the pEC50 is 7.64.

Take `Cn1nc(C(F)(F)F)c2cc(-c3cccc4c3C(=O)N([C@H](C3CC3)C(C)(C)O)C4)ccc21` [Compound 80, (R)-2-(1-cyclopropyl-2-hydroxy-2-methylpropyl)-7-(1-methyl-3-(trifluoromethyl)-1H-indazol-5-yl)isoindolin-1-one]: the pEC50 is 9.41.

For `Cc1nnc(-c2ccc(-c3cccc4c3C(=O)N([C@H](C3CC3)C(C)(C)O)C4)c(F)c2C)o1` [Compound 72, (R)-2-(1-cyclopropyl-2-hydroxy-2-methylpropyl)-7-(2-fluoro-3-methyl-4-(5-methyl-1,3,4-oxadiazol-2-yl)phenyl)isoindolin-1-one], the pEC50 was 9.23. This pEC50 and that of the molecule before are within 0.2 log units of each other.

`COc1nccc(C(=O)Nc2cccc3c2C(=O)N(C(C2CC2)C(C)(C)O)C3)c1OC` (single isomer, unassigned) [Compound 164, (R or S)-N-(2-(1-cyclopropyl-2-hydroxy-2-methylpropyl)-3-oxoisoindolin-4-yl)-2,3-dimethoxyisonicotinamide] had a pEC50 of 7.11.

`CN(C(=O)OC1CN2CCC1CC2)c1cccc2c1C(=O)N(c1ccc(F)cc1)C2` (racemic) [Compound 170, (R and S)-Quinuclidin-3-yl(2-(4-fluorophenyl)-3-oxoisoindolin-4-yl)(methyl)carbamate] showed a pEC50 of 6.89.

`Cc1nnc(-c2ccc(-c3cccc4c3C(=O)N([C@H](C3CC3)C(C)(C)O)C4)cn2)o1` [Compound 65, (R)-2-(1-cyclopropyl-2-hydroxy-2-methylpropyl)-7-(6-(5-methyl-1,3,4-oxadiazol-2-yl)pyridin-3-yl)isoindolin-1-one] had a pEC50 of 6.82.
